Columns and labels:
[1] = target: ATP-binding cassette sub-family C member 2 (Homo sapiens, UniProt Q92887); assay: TP_TRANSPORTER: inhibition of LTC4 uptake (LTC4: 0.05 uM) in HepG2 cells; type: functional, cell-based
[2] = target: T1, ATP-binding cassette sub-family C member 2 (Rattus norvegicus, UniProt Q63120); assay: TP_TRANSPORTER: uptake in bile canalicular membranes from Wistar/TR- rat; type: functional, cell membranes, Bile canalicular membrane
[3] = target: T1, ATP-binding cassette sub-family C member 2; assay: TP_TRANSPORTER: inhibition of LTC4 uptake (LTC4: 0.05 uM) in bile canalicular membranes from Wistar rat; type: functional, cell membranes, Bile canalicular membrane
[4] = target: T2, Multidrug resistance-associated protein 1 (Homo sapiens, UniProt P33527); assay: TP_TRANSPORTER: uptake in membrane vesicle from MRP1-expressing HeLa cells; type: functional, cell membranes
T2 sequence (P33527 whole entry): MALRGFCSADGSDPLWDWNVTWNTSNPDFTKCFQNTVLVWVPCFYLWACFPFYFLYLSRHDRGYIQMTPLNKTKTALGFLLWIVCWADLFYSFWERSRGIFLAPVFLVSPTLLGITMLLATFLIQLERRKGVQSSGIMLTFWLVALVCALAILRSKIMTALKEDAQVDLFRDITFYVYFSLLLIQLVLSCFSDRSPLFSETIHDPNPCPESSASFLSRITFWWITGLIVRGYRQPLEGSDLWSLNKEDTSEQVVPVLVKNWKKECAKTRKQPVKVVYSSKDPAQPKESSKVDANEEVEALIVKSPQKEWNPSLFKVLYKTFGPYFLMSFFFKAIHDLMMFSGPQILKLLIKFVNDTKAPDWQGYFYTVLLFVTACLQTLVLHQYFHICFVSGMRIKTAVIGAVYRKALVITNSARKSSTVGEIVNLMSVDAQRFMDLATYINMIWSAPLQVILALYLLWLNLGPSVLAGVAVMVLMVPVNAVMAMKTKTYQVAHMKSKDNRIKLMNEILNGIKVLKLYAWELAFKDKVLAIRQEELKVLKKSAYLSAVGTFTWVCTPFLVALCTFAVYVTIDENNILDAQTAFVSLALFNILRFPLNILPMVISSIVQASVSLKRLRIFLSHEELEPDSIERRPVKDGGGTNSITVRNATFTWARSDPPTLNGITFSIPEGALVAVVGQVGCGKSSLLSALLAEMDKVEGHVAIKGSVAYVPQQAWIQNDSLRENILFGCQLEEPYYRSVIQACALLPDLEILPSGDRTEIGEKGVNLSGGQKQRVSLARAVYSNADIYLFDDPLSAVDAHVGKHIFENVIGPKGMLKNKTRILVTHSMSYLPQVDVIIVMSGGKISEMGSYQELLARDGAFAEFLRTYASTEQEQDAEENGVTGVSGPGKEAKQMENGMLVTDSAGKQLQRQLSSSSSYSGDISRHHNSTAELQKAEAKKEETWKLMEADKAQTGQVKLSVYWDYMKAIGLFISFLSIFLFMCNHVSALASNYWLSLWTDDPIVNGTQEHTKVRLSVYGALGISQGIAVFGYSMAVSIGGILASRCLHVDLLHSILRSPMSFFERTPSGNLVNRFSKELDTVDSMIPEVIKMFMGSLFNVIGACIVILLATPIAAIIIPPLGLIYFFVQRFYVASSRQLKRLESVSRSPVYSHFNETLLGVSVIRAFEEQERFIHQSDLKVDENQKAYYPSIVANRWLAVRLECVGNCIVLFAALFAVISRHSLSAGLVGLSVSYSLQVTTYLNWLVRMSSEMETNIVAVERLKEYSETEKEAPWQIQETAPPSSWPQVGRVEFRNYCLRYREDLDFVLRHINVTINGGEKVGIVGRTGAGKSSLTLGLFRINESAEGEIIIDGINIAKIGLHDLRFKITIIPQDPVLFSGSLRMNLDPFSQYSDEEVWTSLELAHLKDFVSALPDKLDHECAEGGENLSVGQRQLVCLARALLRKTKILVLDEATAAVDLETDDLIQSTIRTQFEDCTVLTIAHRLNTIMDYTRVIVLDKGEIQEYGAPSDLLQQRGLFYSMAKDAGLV

[5] = target: T2, Multidrug resistance-associated protein 1; assay: TP_TRANSPORTER: inhibition of LTC4 uptake (LTC4: 0.05 uM) in membrane vesicle from MRP1-expressing HeLa cells; type: functional, cell membranes

T1 sequence (Q63120 whole entry): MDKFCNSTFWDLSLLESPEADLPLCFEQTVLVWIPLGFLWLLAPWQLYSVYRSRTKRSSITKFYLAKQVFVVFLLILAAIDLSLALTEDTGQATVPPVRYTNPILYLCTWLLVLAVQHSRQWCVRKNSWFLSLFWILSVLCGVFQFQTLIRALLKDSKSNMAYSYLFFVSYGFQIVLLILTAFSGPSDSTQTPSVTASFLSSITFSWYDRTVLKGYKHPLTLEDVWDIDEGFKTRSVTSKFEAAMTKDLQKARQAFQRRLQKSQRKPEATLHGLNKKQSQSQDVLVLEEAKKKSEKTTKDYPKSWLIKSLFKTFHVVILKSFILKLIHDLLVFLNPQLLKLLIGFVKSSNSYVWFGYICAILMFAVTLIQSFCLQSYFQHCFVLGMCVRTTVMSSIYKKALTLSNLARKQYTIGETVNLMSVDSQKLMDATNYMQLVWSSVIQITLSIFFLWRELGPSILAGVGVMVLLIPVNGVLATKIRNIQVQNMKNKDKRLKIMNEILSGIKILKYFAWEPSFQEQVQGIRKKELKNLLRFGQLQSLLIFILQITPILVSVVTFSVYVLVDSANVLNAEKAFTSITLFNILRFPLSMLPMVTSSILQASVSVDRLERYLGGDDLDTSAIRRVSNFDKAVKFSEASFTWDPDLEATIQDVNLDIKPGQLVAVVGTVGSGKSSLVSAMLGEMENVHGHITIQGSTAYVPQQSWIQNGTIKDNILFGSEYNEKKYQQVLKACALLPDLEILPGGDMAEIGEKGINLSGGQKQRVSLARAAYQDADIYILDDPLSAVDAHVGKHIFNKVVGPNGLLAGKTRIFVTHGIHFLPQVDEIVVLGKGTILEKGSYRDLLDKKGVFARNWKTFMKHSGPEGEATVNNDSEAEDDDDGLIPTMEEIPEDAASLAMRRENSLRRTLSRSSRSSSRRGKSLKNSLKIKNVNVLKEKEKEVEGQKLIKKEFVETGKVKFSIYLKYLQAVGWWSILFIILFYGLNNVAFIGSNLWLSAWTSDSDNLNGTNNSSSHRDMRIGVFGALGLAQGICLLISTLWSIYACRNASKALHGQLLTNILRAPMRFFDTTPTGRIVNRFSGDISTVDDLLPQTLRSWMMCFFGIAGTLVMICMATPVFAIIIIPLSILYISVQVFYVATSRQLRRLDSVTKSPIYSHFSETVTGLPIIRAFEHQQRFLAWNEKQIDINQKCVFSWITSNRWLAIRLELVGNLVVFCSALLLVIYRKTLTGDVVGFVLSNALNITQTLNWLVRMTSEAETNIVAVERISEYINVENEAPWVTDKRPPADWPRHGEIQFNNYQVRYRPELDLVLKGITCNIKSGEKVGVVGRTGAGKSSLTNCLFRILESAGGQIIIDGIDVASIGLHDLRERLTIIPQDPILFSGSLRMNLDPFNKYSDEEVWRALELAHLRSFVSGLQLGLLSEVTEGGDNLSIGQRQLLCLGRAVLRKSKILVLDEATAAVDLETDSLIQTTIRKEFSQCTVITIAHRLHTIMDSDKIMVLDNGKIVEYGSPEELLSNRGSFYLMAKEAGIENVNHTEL
Sequence of ATP-binding cassette sub-family C member 2 (Homo sapiens, UniProt Q92887) (Q92887 whole entry): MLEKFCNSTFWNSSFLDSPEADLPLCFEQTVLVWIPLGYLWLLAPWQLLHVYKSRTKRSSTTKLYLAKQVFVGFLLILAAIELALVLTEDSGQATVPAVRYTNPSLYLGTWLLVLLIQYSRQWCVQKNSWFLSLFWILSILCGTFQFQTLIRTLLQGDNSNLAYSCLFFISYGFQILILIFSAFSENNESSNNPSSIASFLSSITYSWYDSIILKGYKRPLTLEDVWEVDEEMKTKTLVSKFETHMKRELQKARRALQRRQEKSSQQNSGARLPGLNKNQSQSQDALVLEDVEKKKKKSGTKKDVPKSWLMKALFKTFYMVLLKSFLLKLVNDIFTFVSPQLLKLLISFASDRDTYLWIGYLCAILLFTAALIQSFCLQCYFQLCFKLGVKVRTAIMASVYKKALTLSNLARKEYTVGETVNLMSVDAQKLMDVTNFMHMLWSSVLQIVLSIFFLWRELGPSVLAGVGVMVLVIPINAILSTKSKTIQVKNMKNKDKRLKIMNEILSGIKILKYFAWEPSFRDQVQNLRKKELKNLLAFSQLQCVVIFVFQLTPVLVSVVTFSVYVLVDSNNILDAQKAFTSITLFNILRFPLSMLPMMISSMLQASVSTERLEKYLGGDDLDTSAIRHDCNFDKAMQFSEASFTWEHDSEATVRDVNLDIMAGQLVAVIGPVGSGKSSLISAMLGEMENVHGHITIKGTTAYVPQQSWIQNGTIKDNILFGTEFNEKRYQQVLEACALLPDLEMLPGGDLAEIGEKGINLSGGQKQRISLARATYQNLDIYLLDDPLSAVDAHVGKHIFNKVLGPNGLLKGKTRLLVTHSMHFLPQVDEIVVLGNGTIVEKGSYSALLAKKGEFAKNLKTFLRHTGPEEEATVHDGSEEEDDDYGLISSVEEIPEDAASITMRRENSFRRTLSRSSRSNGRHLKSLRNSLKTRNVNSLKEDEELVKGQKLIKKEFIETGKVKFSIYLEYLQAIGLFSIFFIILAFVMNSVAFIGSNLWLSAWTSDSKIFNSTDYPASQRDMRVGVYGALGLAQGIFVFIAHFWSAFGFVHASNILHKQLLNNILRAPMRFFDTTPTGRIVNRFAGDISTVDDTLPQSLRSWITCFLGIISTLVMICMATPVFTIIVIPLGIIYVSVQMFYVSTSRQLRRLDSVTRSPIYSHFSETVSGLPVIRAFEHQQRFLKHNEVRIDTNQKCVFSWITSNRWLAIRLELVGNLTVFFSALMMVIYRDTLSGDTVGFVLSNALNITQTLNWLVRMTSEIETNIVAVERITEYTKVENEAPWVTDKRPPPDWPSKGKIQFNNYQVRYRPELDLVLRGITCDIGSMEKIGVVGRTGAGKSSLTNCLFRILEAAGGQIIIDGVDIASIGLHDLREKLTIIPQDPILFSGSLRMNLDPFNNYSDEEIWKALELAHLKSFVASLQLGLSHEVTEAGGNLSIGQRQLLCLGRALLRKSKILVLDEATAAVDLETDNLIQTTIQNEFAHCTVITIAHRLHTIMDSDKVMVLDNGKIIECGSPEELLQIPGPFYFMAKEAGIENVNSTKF

Row | Compound | IC50 [1] | Activity [2] | IC50 [3] | Activity [4] | IC50 [5]
1 | C=CC1=C(C)/C(=C/c2[nH]c(Cc3[nH]c(/C=C4\NC(=O)C(C)=C4C=C)c(C)c3CCC(=O)O[C@@H]3O[C@@H](C(=O)O)[C@H](O)[C@@H](O)[C@@H]3O)c(CCC(=O)O[C@@H]3O[C@H](C(=O)O)[C@H](O)[C@H](O)[C@@H]3O)c2C)NC1=O | 400 nM | substrate [+] | 100 nM | substrate [+] | 750 nM
2 | C=CC1=C(C)/C(=C/c2[nH]c(Cc3[nH]c(/C=C4\NC(=O)C(C)=C4C=C)c(C)c3CCC(=O)O[C@@H]3OC(C(=O)O)[C@@H](O)C(O)C3O)c(CCC(=O)O)c2C)NC1=O (stereo not given in full) [BILIRUBIN MONOGLUCURONIDE] | 280 nM | substrate [+] | 120 nM | substrate [+] | 420 nM
